These results are taken from patent US20170313604A1, “Wastewater Treatment Method” (PeroxyChem LLC, priority 2016, published 2017).

SMILES strings stand for the structures.

The test system of this experiment is E. coli. The experiment is described as follows: Full scale trial of peracetic acid disinfection at a wastewater treatment plant (E. coli by IDEXX Colisure method). The arrangement: species or system Escherichia coli. The method, then: A full scale trial of peracetic acid (15% PAA:23% hydrogen peroxide) disinfection was performed at a wastewater treatment plant in Tennessee, USA. The wastewater contained a high level of colored, aromatic molecules discharged from industrial sources involved in the processing of cotton seeds and other sources of lignin and bio-based polymers. The water quality, and as a result the peracetic acid (PAA) demand, was heavily dependent upon the cyclic discharge rates from these industrial sources. Thus, the PAA efficacy in reducing bacterial concentrations within the wastewater was not only dependent upon the overall flow rate of the WWTP, but also upon the time-dependent water quality. The time-dependent water quality demand on PAA at the treatment plant required the inclusion of a PAA feed-forward dosing scheme to insure that the proper dosing of PAA needed to achieve the target microbial reduction was maintained.
Initial testing consisted of collecting continuous, on-line data for four wastewater quality parameters: color, chemical oxygen demand (COD), oxidation/reduction potential (ORP) and UV transmittance (UVT) at 254 nm. Peracetic acid was measured in situ via the Prominent Dulcotest CTE sensor. The sensor was a membrane-capped amperometric, two electrode sensor for the measurement of PAA in aqueous solution. […] PAA contained in the sample water diffused through the membrane, causing a potential difference between electrodes. The primary signal was converted by the amplifier electronics of the sensor into a 4-20 mA, temperature corrected, output signal, which was optimally controlled via the DULCOMETER diaLog DACa controller. Wastewater color was measured on-line utilizing a ChemScan UV-3151 Series Analyzer with a flow-through sensor. The analyzer drew a sample of wastewater from the untreated side of the disinfection channel, representative of the influent wastewater, to the main unit, which was located in the control house. Wastewater COD and % UVT (% ultraviolet transmittance at 254 nm) were measured on-line using a submersible YSI CarboVis model 701 unit. E. coli analysis were performed by a third-party laboratory, using the IDEXX Colisure method.
The data for each quality parameter then was correlated to PAA demand, accounting for wastewater flow rate. E. coli concentrations were measured at the inflow to the disinfection channel, at the mid-point of the disinfection channel and at the outflow.
Subsequent testing was performed with wastewater color as the water quality parameter for feed-forward control of the PAA dose (PAAdemand), coupled with flow pacing.
At least three cycles of water quality (minimum to maximum wastewater color) were tested with flow rates ranging from 50 to 130 MGD. Sixty three E. coli concentrations were measured during this period. […]

Setting [1] is: effluent after PAA dosing with color feed-forward control plus flow pacing, flow 50 to 130 MGD, power-outage measurement eliminated.

As for `CC(=O)OO` [PAA, peracetic acid], the “PAAset point to achieve the desired E. coli reduction” value (at demand neutral performance, this wastewater) is 7 ppm. Also, the “E. coli concentration (all but one of sixty three measurements)” value (below the permitted daily maximum, the exception occurred in a power outage with no PAA dosed) is recorded as under 487 cfu/100 mL. Moreover, under setting [1], the “E. coli arithmetic mean concentration” value turned out to be 18 cfu/100 mL and the “E. coli geomean concentration” value came out at 12 cfu/100 mL.
